Measured values as given in article PMC3961306, “Comparison of the Cancer Gene Targeting and Biochemical Selectivities of All Targeted Kinase Inhibitors Approved for Clinical Use” (PLoS ONE, 2014).

Key:
[1] = system: mutant versus wild-type cell lines of the 44 cell line panel; test: Anova analysis of cell panel IC50s against cancer gene changes; standardized mean difference (targetedness); settings: BRAF oncogene targeting, Figure 5D
[2] = target: panel of more than 300 wild-type and mutant kinases (313 kinase panel) (Homo sapiens, UniProt P00519, T315I); test: Kinase profiling in a biochemical assay panel (mobility shift assays and ELISA), %-inhibition at 1 μM; selectivity entropy
FKBP12 = settings: value indicates binding interaction with FKBP12; read-out: IC50 (nM) on relevant targets: mTOR; cited from earlier work
[3] = kinase ABL(T315I), 1 μM compound

SMILES	%-inhibition, ABL(T315I) [2, 3] [%]	other results
CC(C)(C)c1nc(-c2cccc(NS(=O)(=O)c3c(F)cccc3F)c2F)c(-c2ccnc(N)n2)s1 [dabrafenib]		targetedness (standardized logIC50 difference) [1]: -4.96
O=S(=O)(c1cccc2cnccc12)N1CCCNCC1 [fasudil]	1.7	
CCCS(=O)(=O)Nc1ccc(F)c(C(=O)c2c[nH]c3ncc(-c4ccc(Cl)cc4)cc23)c1F [vemurafenib]	7	
CS(=O)(=O)CCNCc1ccc(-c2ccc3ncnc(Nc4ccc(OCc5cccc(F)c5)c(Cl)c4)c3c2)o1 [lapatinib]	9	
CNC(=O)c1cc(Oc2ccc(NC(=O)Nc3ccc(Cl)c(C(F)(F)F)c3)c(F)c2)ccn1 [regorafenib]	66	
N#CC[C@H](C1CCCC1)n1cc(-c2ncnc3[nH]ccc23)cn1 [ruxolitinib]		%-inhibition, ABL(T315I) ([2]; 1 µM): 4%
CO[C@H]1C[C@@H]2CC[C@@H](C)[C@@](O)(O2)C(=O)C(=O)N2CCCC[C@H]2C(=O)O[C@H]([C@H](C)C[C@@H]2CC[C@@H](OCCO)[C@H](OC)C2)CC(=O)[C@H](C)/C=C(\C)[C@@H](O)[C@@H](OC)C(=O)[C@H](C)C[C@H](C)/C=C/C=C/C=C/1C [everolimus]		IC50 (FKBP12): ~2 nM
CO[C@H]1C[C@@H]2CC[C@@H](C)[C@@](O)(O2)C(=O)C(=O)N2CCCC[C@H]2C(=O)O[C@H]([C@H](C)C[C@@H]2CC[C@@H](OC(=O)C(C)(CO)CO)[C@H](OC)C2)CC(=O)[C@H](C)/C=C(\C)[C@@H](O)[C@@H](OC)C(=O)[C@H](C)C[C@H](C)/C=C/C=C/C=C/1C [temsirolimus]		IC50 (FKBP12): ~2 nM
